{"source": "patent US20020049139A1", "about": "“Herbicidal compositions containing DMSO” (priority 1997, published 2002)", "key": {"cacao seedling": {"tested_on": "cacao seedling", "details": "aqueous solutions containing 40% or greater amounts of DMSO; cited from earlier work"}, "hosta": {"tested_on": "hosta", "assay": "Phytotoxicity of DMSO sprays on hosta", "format": "in vivo", "method": "(§1) Phytotoxicity of DMSO sprays was evaluated on hosta, ferns and azaleas. In each instance, groups of 6 plants were sprayed with 1%, 2%, 5% or 10% aqueous DMSO."}, "azaleas": {"tested_on": "azaleas", "assay": "Phytotoxicity of DMSO sprays on azaleas", "format": "in vivo, azalea", "method": "as §1"}, "ferns": {"tested_on": "ferns", "assay": "Phytotoxicity of DMSO sprays on ferns", "format": "in vivo", "method": "as §1"}, "sickle pod [1]": {"tested_on": "sickle pod", "assay": "Greenhouse control of sickle pod by glyphosate with/without DMSO", "format": "in vivo"}, "sickle pod [2]": {"tested_on": "sickle pod", "assay": "Greenhouse control of sickle pod by glyphosate with/without DMSO", "format": "in vivo", "method": "Glyphosate (N-(phosphonomethyl) glycine), the active agent (41%) in Composition B and other similar non-selective herbicidal products for control of many annual and perennial grasses, broadleaf weeds, woody shrubs and trees was evaluated in greenhouse studies. The LD50 range for glyphosate in the commercial concentrate Composition B on sickle pod grown in the greenhouse was established at 0.06%, and […].\nData showing effectiveness for control of sickle pod at concentration 0.06% and 0.3% in carrier with 3% DMSO are shown below. The testing procedure used 12 sickle pod 3 inches high selected for uniformity in each treatment. The rating of injury to each plant was based on visual rating of herbicidal activity with +=10%, ++=25%, +++=50%, ++++−75% and dead plants=[…].", "remark": "listed apart in the source"}}, "data": [{"smiles": "C[S+](C)[O-]", "note": "[DMSO, Dimethylsulfoxide]", "values": [{"measurement": "effect on cacao seedling", "setting": "cacao seedling", "value": "marginal necroses"}, {"measurement": "Effects", "setting": "hosta; hosta sprayed with 2% aqueous DMSO", "value": "non-toxic"}, {"measurement": "Effects", "setting": "hosta; hosta sprayed with 5% aqueous DMSO", "value": "non-toxic"}, {"measurement": "Effects", "setting": "hosta; hosta sprayed with 10% aqueous DMSO", "value": "Margina burn"}, {"measurement": "Effects", "setting": "azaleas; azalea sprayed with 2% aqueous DMSO", "value": "non-toxic"}, {"measurement": "Effects", "setting": "azaleas; azalea sprayed with 5% aqueous DMSO", "value": "non-toxic"}, {"measurement": "Effects", "setting": "azaleas; azalea sprayed with 10% aqueous DMSO", "value": "non-toxic"}, {"measurement": "Effects", "setting": "ferns; ferns sprayed with 2% aqueous DMSO", "value": "non-toxic"}, {"measurement": "Effects", "setting": "ferns; ferns sprayed with 5% aqueous DMSO", "value": "burn on fron tips"}, {"measurement": "Effects", "setting": "ferns; ferns sprayed with 10% aqueous DMSO", "value": "burn on fron tips"}]}, {"smiles": "O=C(O)CNCP(=O)(O)O", "note": "[glyphosate, N-(phosphonomethyl) glycine]", "values": [{"measurement": "% control of sickle pod", "setting": "sickle pod [1]; 0.03% glyphosate with 3% DMSO, 12 days", "value": 85, "unit": "%"}, {"measurement": "sickle pod control with 3% DMSO versus without DMSO", "setting": "sickle pod [1]; glyphosate at 0.06% and 0.03%, 3% DMSO present", "value": "significant improvement"}, {"measurement": "% control of sickle pod", "setting": "sickle pod [2]; 0.03% glyphosate only, 12 days", "value": 54, "unit": "%"}, {"measurement": "% control of sickle pod", "setting": "sickle pod [2]; 0.06% glyphosate only, 12 days", "value": 51, "unit": "%"}, {"measurement": "% control of sickle pod", "setting": "sickle pod [2]; 0.06% glyphosate only, 20 days", "value": 43, "unit": "%"}, {"measurement": "% control of sickle pod", "setting": "sickle pod [2]; 0.06% glyphosate only, 30 days", "value": 85, "unit": "%"}, {"measurement": "% control of sickle pod", "setting": "sickle pod [2]; 0.06% glyphosate with 3% DMSO, 12 days", "value": 90, "unit": "%"}, {"measurement": "% control of sickle pod", "setting": "sickle pod [2]; 0.06% glyphosate, 3% DMSO, 20 days", "value": 85, "unit": "%"}, {"measurement": "control of sickle pod over a 30 day interval with 3% DMSO versus glyphosate only", "setting": "sickle pod [2]; 0.06% glyphosate, 3% DMSO, 30 day interval", "value": "improved early and sustained control"}, {"measurement": "% control of sickle pod", "setting": "sickle pod [2]; 0.06% glyphosate, 3% DMSO, 30 days", "value": 96, "unit": "%"}]}]}
